The supplement of paper PMC10307832

Legend:
Test in all cases: relative viability (nuclei count vs DMSO), 5 days (fraction); higher = more cells survive
XMD14-99 + Tozasertib = compound: CN1CCN(CC1)C2=CC(=C(C=C2)NC3=NC(=C(S3)C(=O)C4=C(C=CC=C4Cl)Cl)N)OC [XMD14-99] + Cc1cc(Nc2cc(N3CCN(C)CC3)nc(Sc3ccc(NC(=O)C4CC4)cc3)n2)n[nH]1 [Tozasertib] (partner 0.1 µM)
How it was run: (§1)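 Nuclei were stained with Hoechst during a one-step fixation (final 0.05% Triton X-100, 1% formaldehyde, 1 ug/ml Hoechst) carried out 5 days after dosing, then counted on 4× images. The cells, lung cancer lines in 1536-well plates, had been dosed by pin tool the day after seeding with one drug alone or a fixed anchor-drug dose plus five library-drug doses (not always all listed) in √10 steps. Relative viability is the nuclei count in treated wells divided by that in vehicle wells, and each value is the median of duplicate plates.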

AZD1208 + Navitoclax = compound: N[C@@H]1CCCN(c2c(/C=C3\SC(=O)NC3=O)cccc2-c2ccccc2)C1 [AZD1208] + CC1(C)CCC(c2ccc(Cl)cc2)=C(CN2CCN(c3ccc(C(=O)NS(=O)(=O)c4ccc(N[C@H](CCN5CCOCC5)CSc5ccccc5)c(S(=O)(=O)C(F)(F)F)c4)cc3)CC2)C1 [Navitoclax] (partner 0.5 µM)
How it was run: as §1

AZD1208 + Crizotinib = compound: N[C@@H]1CCCN(c2c(/C=C3\SC(=O)NC3=O)cccc2-c2ccccc2)C1 [AZD1208] + C[C@@H](Oc1cc(-c2cnn(C3CCNCC3)c2)cnc1N)c1c(Cl)ccc(F)c1Cl [Crizotinib] (partner 1 µM)
How it was run: as §1

AZD1208 + Pemetrexed = compound: N[C@@H]1CCCN(c2c(/C=C3\SC(=O)NC3=O)cccc2-c2ccccc2)C1 [AZD1208] + Nc1nc2[nH]cc(CCc3ccc(C(=O)N[C@@H](CCC(=O)O)C(=O)O)cc3)c2c(=O)[nH]1 [Pemetrexed] (partner 0.2 µM)
How it was run: as §1

| Cell Line | relative viability (XMD14-99 + Tozasertib; first compound 0.08 µM) | relative viability (XMD14-99 + Tozasertib; first compound 0.8 µM) | relative viability (XMD14-99 + Tozasertib; first compound 2.53 µM) | relative viability (XMD14-99 + Tozasertib; first compound 8 µM) | relative viability (AZD1208 + Navitoclax; first compound 0.08 µM) | relative viability (AZD1208 + Navitoclax; first compound 0.253 µM) | relative viability (AZD1208 + Navitoclax; first compound 0.8 µM) | relative viability (AZD1208 + Navitoclax; first compound 2.53 µM) | relative viability (AZD1208 + Navitoclax; first compound 8 µM) | relative viability (AZD1208 + Crizotinib; first compound 0.08 µM) | relative viability (AZD1208 + Crizotinib; first compound 0.253 µM) | relative viability (AZD1208 + Crizotinib; first compound 0.8 µM) | relative viability (AZD1208 + Crizotinib; first compound 2.53 µM) | relative viability (AZD1208 + Crizotinib; first compound 8 µM) | relative viability (AZD1208 + Pemetrexed; first compound 0.08 µM) | relative viability (AZD1208 + Pemetrexed; first compound 0.253 µM) | relative viability (AZD1208 + Pemetrexed; first compound 0.8 µM) | relative viability (AZD1208 + Pemetrexed; first compound 2.53 µM) | relative viability (AZD1208 + Pemetrexed; first compound 8 µM) |
| --- | --- | --- | --- | --- | --- | --- | --- | --- | --- | --- | --- | --- | --- | --- | --- | --- | --- | --- | --- |
| SK-LU-1 | 0.34 | 0.298 | 0.355 | 0.254 | 0.56 | 0.874 | 0.883 | 0.774 | 0.813 | 0.991 | 1.16 | 0.882 | 0.819 | 0.674 | 0.956 | 1.02 | 0.988 | 0.944 | 0.869 |
| NCI-H2347 | 0.555 | 0.641 | 0.442 | 0.405 | 0.917 | 0.94 | 0.685 | 0.794 | 0.716 | 0.626 | 0.626 | 0.582 | 0.648 | 0.588 | 0.447 | 0.423 | 0.468 | 0.439 | 0.444 |
| HCC-366 | 0.117 | 0.109 | 0.657 | 0.0463 | 1.1 | 0.965 | 1.02 | 1.05 | 0.927 | 0.479 | 0.593 | 0.536 | 0.452 | 0.246 | 0.182 | 0.206 | 0.194 | 0.581 | 0.223 |
| EMC-BAC-2 | 0.28 | 0.249 | 0.27 | 0.254 | 1.17 | 1.39 | 1.14 | 1.17 | 1.07 | 0.84 | 0.785 | 0.74 | 0.798 | 0.674 | 0.462 | 0.474 | 0.511 | 0.524 | 0.54 |
| NCI-H3122 | 0.407 | 0.314 | 0.295 | 0.179 | 1.04 | 1 | 0.995 | 1.05 | 1.08 | 0.264 | 0.246 | 0.241 | 0.254 | 0.285 | 0.201 | 0.187 | 0.195 | 0.207 | 0.187 |
| NCI-H1944 | 0.226 | 0.256 | 0.255 | 0.235 | 1.05 | 1.01 | 0.977 | 1.01 | 0.832 | 1.14 | 1.16 | 0.985 | 1.01 | 0.827 | 0.593 | 0.652 | 0.591 | 0.579 | 0.535 |
| EPLC-272H | 0.348 | 0.307 | 0.264 | 0.324 | 1.08 | 1.24 | 1.08 | 1.04 | 0.897 | 0.93 | 1 | 0.792 | 0.849 | 0.726 | 0.353 | 0.422 | 0.376 | 0.342 | 0.406 |
| NCI-H1915 | 0.423 | 0.42 | 0.428 | 0.386 | 0.794 | 0.797 | 0.839 | 0.832 | 0.825 | 0.847 | 0.982 | 0.865 | 0.885 | 0.845 | 0.452 | 0.483 | 0.528 | 0.462 | 0.443 |
